Results: patent publication US20230165829A1, “FLAVAGLINE DERIVATIVES FOR INHIBITION OF KRAS ONCOGENE ACTIVATION” (KHR BIOTEC GMBH, priority 2018, published 2023)
Read-outs that look alike come from different tables or passages of the source.

Key:
RAS [1] = test: Active Ras pull down assay (CRAF-RBD, Ral-GDS-RA) after EGF stimulation in HeLa cells; type: cell-based; conditions: pre-treatment at 200 nM, 1 h before EGF stimulation
RAS [2] = conditions: cited from earlier work

## COc1cc(OC)c2c(c1)O[C@@]1(c3ccc(Br)cc3)[C@H](c3ccccc3)C[C@@H](O)[C@@]21O [FL3]
KRAS G12V
  inactivation of KRAS (inhibition of KRAS activation), relative luminescence vs DMSO: inactivation of KRAS

## COC(=O)[C@H]1[C@@H](O)[C@@]2(O)c3c(OC)cc(OC)cc3O[C@@]2(c2ccc(Br)cc2)[C@@H]1c1ccccc1 [FL10]
KRAS G12V
  inactivation of KRAS (inhibition of KRAS activation), relative luminescence vs DMSO: inactivation of KRAS

## CNC(=O)[C@H]1[C@@H](O)[C@@]2(O)c3c(OC)cc(OC)cc3O[C@@]2(c2ccc(Br)cc2)[C@@H]1c1ccccc1 [FL13]
KRAS G12V
  inactivation of KRAS (inhibition of KRAS activation), relative luminescence vs DMSO: inactivation of KRAS

## COc1ccc([C@@]23Oc4cc(OC)cc(OC)c4[C@]2(O)[C@H](O)C[C@H]3c2cccc(F)c2)cc1 [FL15]
KRAS G12V
  inactivation of KRAS (inhibition of KRAS activation), relative luminescence vs DMSO: inactivation of KRAS

## COc1ccc([C@@]23Oc4cc(OC)cc(OC)c4[C@]2(O)[C@H](OC=O)C[C@H]3c2ccccc2)cc1 [FL19]
KRAS G12V
  inactivation of KRAS (inhibition of KRAS activation), relative luminescence vs DMSO: inactivation of KRAS

## COc1cc(OC)c2c(c1)O[C@@]1(c3ccc(Br)cc3)[C@H](c3cccc(F)c3)C[C@H](NC(=O)N(C)C)[C@@]21O [FL37]
KRAS G12V
  inactivation of KRAS (inhibition of KRAS activation), relative luminescence vs DMSO: inactivation of KRAS

## COc1cc(OC)c2c(c1)O[C@@]1(c3ccc(Br)cc3)[C@H](c3cccc(F)c3)C[C@H](NC(N)=O)[C@@]21O [FL40]
KRAS G12V
  inactivation of KRAS (inhibition of KRAS activation), relative luminescence vs DMSO: inactivation of KRAS

## COc1cc(OC)c2c(c1)O[C@@]1(c3ccc(Cl)cc3)[C@H](c3cccc(F)c3)C[C@H](NC(=O)N(C)C)[C@@]21O [FL42]
KRAS G12V
  inactivation of KRAS (inhibition of KRAS activation), relative luminescence vs DMSO: inactivation of KRAS

## CNCCOc1ccc2c(c1)O[C@@]1(c3ccc(Cl)cc3)[C@H](c3ccccc3)C[C@@H](O)[C@@]21O [IMD-26260]
KRAS G12V
  inactivation of KRAS (inhibition of KRAS activation), relative luminescence vs DMSO: inactivation of KRAS

## COc1ccc([C@@]23Oc4cc(OC)cc(OC)c4[C@]2(O)[C@H](O)[C@H](C(=O)N(C)C)[C@H]3c2ccccc2)cc1 [rocaglamide]
KRAS G12V; 100 nM compounds for 4 h, KRAS G12V transfected HeLa cells, similar results with KRAS WT + EGF (100 ng/ml, 30 min)
  inactivation of KRAS (inhibition of KRAS activation), relative luminescence vs DMSO: inactivation of KRAS
RAS [1]
  activation of RAS in response to EGF (GTP-loaded Ras pull down): inhibited
RAS [2]
  RAS-activation in KRAS-mutated cell lines: inhibits RAS-activation
  specificity for KRAS versus isoforms HRAS and NRAS: not specific enough to differentiate between KRAS and a closely related isoform HRAS and NRAS
